“Also recorded” adds a separate entry of the source.
Tests used:
human 5-HT2B receptor [1] = biological target: T1, human 5-HT2B receptor (Homo sapiens, UniProt P41595); experiment: Aequorin assay, agonist activity at the 5-HT2B receptor; assay type: cell-based
T1 construct: host or cells: CHO-K1
Procedure: Percentage activation values were determined for 2-CF3 dihydroergotamine at the 5-HT2B receptor.

human 5-HT2B receptor [2] = biological target: T1, human 5-HT2B receptor; experiment: Aequorin assay, competitive antagonist activity at the 5-HT2B receptor; assay type: cell-based
Procedure: Percentage inhibition values were determined for 2-CF3 dihydroergotamine on the 5-HT2B receptor.

human saphenous veins = experiment: Constriction assay, human saphenous veins; conditions: CCRC 100 pM to 10 μM, 6 donors
Procedure: (§1) Human coronary arteries and saphenous veins were set up under isometric conditions on either small vessel wire myographs or organ baths, depending on vessel size, in order to examine the influence of the test article on the relative changes in tension. In order to assess tissue viability, the vessel segments were constricted with a high potassium solution (KPSS, 62.5 mM) three times. Vessels were then pre-constricted with sumatriptan (1 μM) and endothelium-dependent vasorelaxation investigated using bradykinin (10 μM). […] All vessels were fully relaxed at the end of the experiment using forskolin (10 μM).
(§2) Coronary arteries and small saphenous veins, having been cut into ring segments of approximately 2 mm length, were attached by 40 μm diameter wire running through the lumen of the vessel to stainless steel heads in 5 mL myograph baths containing PSS (physiological saline solution), aerated with 95% 02 and 5% CO2 and maintained at a temperature of 37° C. Changes in tension were recorded using a Danish Myotech isometric transducer. The vessel segments were allowed to equilibrate for at least 30 minutes after set up. Segments were processed through a standardization procedure of tension application, which reduces signal variability and allows for optimal tissue response to be obtained prior the pharmacological intervention. […]

[3] = Metabolism in human liver microsomes; conditions: 1 μM, 37° C., 0-60 min; for metabolism by human liver microsomes in the presence of NADPH: 0.2 mg protein/mL
Procedure: Metabolism of dihydroergotamine (DHE) and 2-CF3 DHE was evaluated in human liver microsomes. DHE mesylate and 2-CF3 DHE mesylate (1 μM each) were incubated separately with human liver microsomes (0.2 mg protein/mL) in triplicate at 37° C. in 0.2 mL (final volume) incubation buffer (50 mM potassium phosphate buffer, pH 7.4, 3 mM MgCl2 and 1 mM EDTA, pH 7.4) with or without cofactor, NADPH-generating system. The NADPH-generating system consisted of 1 mM NADPH, pH 7.4, 5 mM glucose-6-phosphate, pH 7.4 and 1 unit/mL glucose-6-phosphate dehydrogenase. DHE was added to the incubation mixtures in water. 2-CF3-DHE was added to incubation mixtures in 50:50 (v:v) acetonitrile:water. A low level of acetonitrile in the incubation was maintained to avoid any solvent effects on enzyme activity (typically at 0.5% or lower). Reactions were initiated by the addition of the NADPH-generating system and were terminated at 0, 15, 30 and 60 minutes after initiation by the addition of 175 μL of stop reagent (acetonitrile) containing two internal standards (4′-hydroxydiclofenac-d4 and 1′-hydroxymidazolam-d4, 200 and 50 ng/mL in the final stopped incubation, respectively). The samples were then centrifuged and the supernatant fractions were analyzed by LC/MS/MS to quantify the formation of 8′-OH-DHE (metabolite) in the DHE samples and DHE and 8′-OH-DHE in the 2-CF3-DHE samples.

Salmonella typhimurium = experiment: Genotoxicity study, reversion of histidine-requiring Salmonella typhimurium strains; assay type: cell-based; conditions: five histidine-requiring strains, absence and presence of a rat liver metabolizing system; Dunnett's test, 1% level
Procedure: Genotoxicity studies were performed to evaluate the potential mutagenic activity of 2-CF3-DHE. Studies were performed to examine the ability of 2-CF3-DHE to revert five histidine-requiring strains of Salmonella typhimurium in the absence and presence of a rat liver metabolizing system. […] This is consistent with the conclusion that there was no evidence of any mutagenic activity observed with 2-CF3-DHE.

human coronary arteries = experiment: Constriction assay, human coronary arteries; conditions: CCRC 100 pM to 10 μM in half-log steps, n=6
Procedure: as §1, §2

T1 sequence (P41595 whole entry): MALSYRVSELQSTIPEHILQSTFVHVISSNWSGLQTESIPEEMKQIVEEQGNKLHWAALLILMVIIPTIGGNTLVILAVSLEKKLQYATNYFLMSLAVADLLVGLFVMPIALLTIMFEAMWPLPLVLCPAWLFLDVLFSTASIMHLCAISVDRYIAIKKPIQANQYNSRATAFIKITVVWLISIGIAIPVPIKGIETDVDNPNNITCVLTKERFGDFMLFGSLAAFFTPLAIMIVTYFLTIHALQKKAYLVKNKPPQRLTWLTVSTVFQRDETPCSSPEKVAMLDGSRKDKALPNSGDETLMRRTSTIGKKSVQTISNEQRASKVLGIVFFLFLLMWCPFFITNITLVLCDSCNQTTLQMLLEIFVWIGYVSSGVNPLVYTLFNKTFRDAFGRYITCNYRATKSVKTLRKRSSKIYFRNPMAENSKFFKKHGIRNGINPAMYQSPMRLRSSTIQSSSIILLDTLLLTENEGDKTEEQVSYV

CN1C[C@H](C(=O)N[C@]2(C)O[C@@]3(O)C4CCCN4C(=O)[C@H](Cc4ccccc4)N3C2=O)CC2c3cccc4[nH]c(C(F)(F)F)c(c34)CC21 (stereo partly drawn) [2-CF3-dihydroergotamine]
agonist activity at the 5-HT2B receptor (human 5-HT2B receptor [1]; 0.01 nM to 20,000 nM, compared with Emax of α-methyl-5-HT): no agonist activity; also recorded: little agonist activity | antagonism of the 5-HT2B receptor (human 5-HT2B receptor [2]; FIG. 2): potent antagonism

CN1C[C@H](C(=O)N[C@]2(C)O[C@@]3(O)[C@@H]4CCCN4C(=O)[C@H](Cc4ccccc4)N3C2=O)CC2c3cccc4[nH]c(C(F)(F)F)c(c34)CC21 (stereo partly drawn) [2-CF3-dihydroergotamine]
change in tension, saphenous veins (human saphenous veins): no change in tension | metabolism by human liver microsomes in the presence of NADPH ([3]; listed as 2-CF3-DHE): extensively metabolized | intrinsic clearance, slower than that of DHE ([3]; human liver microsomes 0.2 mg protein/mL, with NADPH): about 85% | mutagenic activity, revertant numbers (Salmonella typhimurium): no statistically significant increases in the revertant numbers | change in tension, coronary arteries (human coronary arteries; listed as 2-CF3-DHE): only a very slight mean increase in tension; also recorded: slight mean increase in tension

Cc1cc(NC(=O)Nc2ccc3c(ccn3C)c2)sn1 [SB204741, reference compound]
IC50 (human 5-HT2B receptor [2]; CHO-K1 cells, reference agonist at its EC50, 0.005 nM to 10,000 nM, read-out: IC50, antagonism of the 5-HT2B receptor): 28.8 nM

CN1C[C@H](C(=O)N[C@]2(C)O[C@@]3(O)[C@@H]4CCCN4C(=O)[C@H](Cc4ccccc4)N3C2=O)C[C@@H]2c3cccc4[nH]cc(c34)C[C@H]21 [dihydroergotamine, reference compound]
metabolism by human liver microsomes in the presence of NADPH ([3]; listed as DHE): extensively metabolized

CNS(=O)(=O)Cc1ccc2[nH]cc(CCN(C)C)c2c1 [sumatriptan, reference compound]
EC50 (human saphenous veins; Homo sapiens, read-out: EC50, constriction curve, saphenous veins): 187 nM | EC50 (human coronary arteries; Homo sapiens, read-out: EC50, constriction curve, coronary arteries): 112 nM

CC(N)Cc1c[nH]c2ccc(O)cc12 (stereo not drawn) [α-methyl-5-HT, reference compound]
EC50 (human 5-HT2B receptor [1]; CHO-K1 cells coexpressing apoaequorin and recombinant human 5-HT2B, reference agonist, read-out: EC50, agonism of the 5-HT2B receptor): 1.01 nM
